{"source": "patent US8337828B2", "about": "“Use of thymosin alpha 1, alone or in combination with PTX3 or ganciclovir, for the treatment of cytomegalovirus infection” (priority 2006, dated 2012)", "key": {"[1]": {"tested_on": "MCMV", "experiment": "Viral replication in DC subsets (real-time PCR of MCMV gB transcripts)", "type": "cell-based, BALB/c mice", "details": "50 μg/ml for 2 h before infection, 48 h", "procedure": "(FIG. 3a) CD11b+DC or pDC were generated from bone marrow of BALB/c mice, infected with MCMV and assessed for morphology by light microscopy and viral replication by real-time PCR of MCMV gB transcripts expression (both at 48 h) or for IRF7 nuclear expression by immunobloting with anti-IRF7 (2 h later). Cells were exposed (+) or not (−) to 50 μg/ml Thymosin alpha 1 for 2 h at 37° C. before infection. − represents uninfected cells. The results shown represent one representative experiment out of 3.\nDC subset generation. DC were obtained by culturing 10^6/ml BALB/c bone marrow cells in Iscove's modified medium, containing 10% filtered bovine serum, 50 μM 2-mercaptoethanol, sodium pyruvate (1 mM), 2 mM L-glutamine, HEPES (10 mM), and 50 μg/ml gentamycin in the presence of 150 U/ml mouse rGM-CSF (Sigma) and 75 U/ml rIL-4 (R&D Systems) for 7 days to obtain CD11b+DC or 200 ng/ml FLT3-L (Immunex Corporation, Seattle, Wash.) for 9 days to obtain pDC. […]\nInhibition of viral replication. […] Infectivity was measured 48 h later.\nReal time RT-PCR for quantification of MCMV mRNA. […]"}, "[2]": {"tested_on": "lymphosarcoma cells", "details": "mouse, in vivo; cited from earlier work"}, "[3]": {"tested_on": "MCMV", "experiment": "MCMV viral load in TLR-deficient mice (plaque assay)", "type": "in vivo, C57BL6, TLR4-/-, TLR9-/- and MyD88-/- mice", "details": "200 μg/kg for a week", "procedure": "Viral load (FIG. 4a) and cytokine production (FIG. 4b) in C57BL6, TLR4−/−, TLR9−/− and MyD88−/− mice infected with 5×10^5 PFU of MCMV and treated with 200 μg/kg Tα1 for a week. Virus titers, expressed as log 10, were quantified on MEF cells by standard plaque assay on infected tissues removed a week after infection and treatment. Cytokine (pg/ml) levels in culture supernatants of spleen cells were determined by ELISA assay. Bars indicate the standard errors. *P<0.05, Tα1-treated vs untreated mice. Results are representative of 3 independent experiments. Mice. Wild-type (WT) inbred C57BL6 and BALB/c mice, 8 to 12 weeks old, were purchased from Charles River Breeding Laboratories (Calco, Italy). Pairs of homozygous TLR9-(TLR9−/−), TLR4-(TLR4−/−), and MyD88-(MyD88−/−)-deficient mice (on the C57BL6 background), were bred under specific pathogen-free conditions at the breeding facilities of the University of Perugia, Perugia, Italy. Experiments were performed following protocols approved by the institutional animal committee and in accordance with European Economic Community Council Directive as well as institutional animal care and use guidelines. Plaque assay. Plaque assay was determined on cells grown to subconfluence and incubated with serially diluted virus samples for 2 h at 37° C. (10). All organs from uninfected animals were negative viruses. Virus titers are expressed as log 10 (mean±standard errors, SE)."}}, "note": "Ends that are not written are not given here.", "data": [{"substance": "Ac-Ser-Asp-Ala-Ala-Val-Asp-Thr-Ser-Ser-Glu -Ile-Thr-Thr-Lys-Asp-Leu-Lys-Glu-Lys-Lys-Glu-Val-Glu-Glu-Ala-Glu-Asn-O (Ac-SDAAVDTSSEITTKDLKEKKEVEEAEN) [Thymosin alpha 1, acidic peptide present in thymus extract with immunoregulatory properties]", "values": [{"measurement": "viral replication", "setting": "[1]; CD11b+DC", "value": "not affected"}, {"measurement": "viral replication", "setting": "[1]; pDC", "value": "actually promoted"}, {"measurement": "local sarcoma growth, liver and lung metastases of lymphosarcoma cells", "setting": "[2]", "value": "significantly reduced"}, {"measurement": "antiviral effect (viral load)", "setting": "[3]; C57BL6 mice", "value": "effective"}, {"measurement": "antiviral effect (viral load)", "setting": "[3]; MyD88-/- mice", "value": "completely ineffective"}, {"measurement": "antiviral effect (viral load)", "setting": "[3]; TLR4-/- mice", "value": "effective"}, {"measurement": "antiviral effect (viral load)", "setting": "[3]; TLR9-/- mice", "value": "completely ineffective"}]}]}
